One test concerns the target human Smo (Homo sapiens (Human), UniProt Q99835). The test can be described thus: Smo radioligand competition binding assay. To be noted: for inhibition at 0.05 µM: 0.05 μM test compound, read-out: Smo % inh. @ 0.05 μM. The method in brief: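 Membranes from HEK293 cells expressing surface human Smo 181-781 (40 μg protein/well) incubated 2 h at room temperature with test compound and tritiated Smo antagonist (3 nM), pH 7.5 Tris buffer; filtration and scintillation counting. Non-specific binding defined with 30 μM cold antagonist; IC50 from four-parameter sigmoidal fit.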
On the technique in general: In a radioligand displacement assay an active substance lowers the binding of a labelled ligand.

A further test concerns Gli-Luc/MEF cells. The test can be described thus: Gli-Luc/MEF assay. Format: cell-based, mouse. To be noted: Mus musculus, MEF; Shh-stimulated luciferase, 48 hours. The method in brief:
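Shh-stimulated luciferase readout (Bright-Glo) after 48 h, 37 °C, 5% CO2, used to derive IC50 of inhibition. Gli-Luc transgenic mouse MEFs received test compounds at final […] in 3-fold dilutions, with recombinant mouse Shh added immediately at final 2 μg/mL.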

pIC50: −log10 of the molar value.

Results on six compounds are retold here after patent US9056865B2, “Pyridine-2-derivatives as smoothened receptor modulators” (Pfizer Inc., priority 2010, dated 2015).

For orientation: pIC50 means the IC50 on a negative log10 scale, so that one unit is a factor of ten. A high value points to a low IC50.

human Smo, sequence (Q99835 181-787): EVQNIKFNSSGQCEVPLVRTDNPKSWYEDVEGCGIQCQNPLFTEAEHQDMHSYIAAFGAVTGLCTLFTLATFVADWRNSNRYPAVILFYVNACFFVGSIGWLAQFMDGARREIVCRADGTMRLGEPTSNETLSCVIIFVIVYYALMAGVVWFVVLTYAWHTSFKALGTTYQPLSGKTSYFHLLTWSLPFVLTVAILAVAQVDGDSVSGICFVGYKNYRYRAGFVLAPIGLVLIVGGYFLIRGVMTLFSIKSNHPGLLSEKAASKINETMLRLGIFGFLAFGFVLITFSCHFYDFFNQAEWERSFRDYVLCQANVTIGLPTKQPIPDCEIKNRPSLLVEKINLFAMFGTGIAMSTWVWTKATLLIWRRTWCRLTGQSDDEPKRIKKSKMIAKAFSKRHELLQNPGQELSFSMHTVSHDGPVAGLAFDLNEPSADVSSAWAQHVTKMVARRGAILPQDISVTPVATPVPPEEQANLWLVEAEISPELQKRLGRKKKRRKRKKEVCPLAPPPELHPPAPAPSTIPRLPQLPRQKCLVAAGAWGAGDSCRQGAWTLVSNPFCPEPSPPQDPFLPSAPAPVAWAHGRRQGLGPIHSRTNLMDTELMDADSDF

Take `Cc1ccc(-c2cccc(N3CCC(NS(C)(=O)=O)CC3)n2)nc1` [Example A-115, N-[1-(5′-methyl-2,2′-bipyridin-6-yl)piperidin-4-yl]methanesulfonamide]: the negative logarithm of the IC50 (pIC50) at human Smo is 7.66; in the test on Gli-Luc/MEF cells it was 7.80. In addition, the inhibition at 0.05 µM on human Smo turned out to be 93%.

As to `Cc1cccnc1-c1cc(N2CCC(C(=O)NC3CCS(=O)(=O)CC3)CC2)ncc1Cl` [Example A-80, 1-(5′-chloro-3-methyl-2,4′-bipyridin-2′-yl)-N-(1,1-dioxidotetrahydro-2H-thiopyran-4-yl)piperidine-4-carboxamide], the pIC50 is 7.47 on human Smo and 7.78 in the test on Gli-Luc/MEF cells. The inhibition at 0.05 µM on human Smo amounted to 101%.

Consider `Cc1cccnc1-c1cc(N2CCC(C(=O)NC3CCCCC3O)CC2)ncc1Cl` (stereo not drawn) [Example A-72, 1-(5′-chloro-3-methyl-2,4′-bipyridin-2′-yl)-N-(2-hydroxycyclohexyl)piperidine-4-carboxamide], for which the figures for the pIC50 on human Smo and in the test with Gli-Luc/MEF cells were 7.55 and 7.65, respectively. Also, on human Smo, the inhibition at 0.05 µM stood at 96.3%.

As to `Cc1ccc(-c2nc(N3CCC(NS(C)(=O)=O)CC3)ccc2Cl)nc1` [Example A-117, N-[1-(3-chloro-5′-methyl-2,2′-bipyridin-6-yl)piperidin-4-yl]methanesulfonamide], on human Smo, the pIC50 was 7.77 and the inhibition at 0.05 µM came to 96%. This compound also showed a pIC50 in the test with Gli-Luc/MEF cells of 7.96.

With `CS(=O)(=O)NC1CCN(c2cc(-c3ncc(Cl)cc3Cl)c(Cl)cn2)CC1` [Example A-12, N-[1-(3,5,5′-trichloro-2,4′-bipyridin-2′-yl)piperidin-4-yl]methanesulfonamide], the pIC50 on human Smo is 7.73; with Gli-Luc/MEF cells it was 7.27. Also, the inhibition at 0.05 µM at human Smo is 88%.

Regarding `Cc1cnc(-c2cc(N3CCN(C(=O)CN(C)C)CC3)ncc2Cl)c(C)c1` [Example A-105, 2-[4-(5′-chloro-3,5-dimethyl-2,4′-bipyridin-2′-yl)piperazin-1-yl]-N,N-dimethyl-2-oxoethanamine], on human Smo, the pIC50 was 7.08 and the inhibition at 0.05 µM turned out to be 84.5%. Moreover, the pIC50 in the test with Gli-Luc/MEF cells is 7.91.
